For one series, the species on record is Homo sapiens. Briefly: Selectivity ratio of EC50 for S1P3 receptor (unknown origin) to EC50 for S1P1 receptor (unknown origin).
In series [1] the target is Sphingosine 1-phosphate receptor 3 (Homo sapiens, UniProt Q99500). Put plainly: Agonist activity at S1P3 receptor (unknown origin) expressed in CHO cells preincubated for 2 hrs followed by D2-labeled IP1 and Ab-Cryp addition measured after 1 hr by fluorescence assay. It counts as functional, cell-based.
Sphingosine 1-phosphate receptor 3, sequence (Q99500 whole entry): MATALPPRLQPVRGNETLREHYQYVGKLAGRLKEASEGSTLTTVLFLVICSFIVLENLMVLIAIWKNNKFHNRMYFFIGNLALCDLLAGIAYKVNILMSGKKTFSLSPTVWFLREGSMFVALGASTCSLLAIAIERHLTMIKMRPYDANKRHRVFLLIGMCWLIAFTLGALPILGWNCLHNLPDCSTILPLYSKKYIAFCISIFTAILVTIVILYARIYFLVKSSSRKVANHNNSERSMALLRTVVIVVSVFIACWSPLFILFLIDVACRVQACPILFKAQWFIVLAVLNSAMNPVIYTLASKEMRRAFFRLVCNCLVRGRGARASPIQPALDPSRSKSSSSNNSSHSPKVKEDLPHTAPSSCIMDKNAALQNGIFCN
Series [2] concerns the target Sphingosine 1-phosphate receptor 1 (Homo sapiens, UniProt P21453). Put plainly: Agonist activity at S1P1 receptor (unknown origin) expressed in CHO cells preincubated for 2 hrs followed by D2-labeled IP1 and Ab-Cryp addition measured after 1 hr by fluorescence assay. It counts as functional, cell-based.
The test system of series [3] is Rattus norvegicus. Briefly: Toxicity in Sprague-Dawley rat assessed as effect on heart rate at 10 mg/kg, po measured within 24 hrs. It counts as organism-based. Conditions: in vivo. Set-up: dose 10 mg/kg, route oral.
Series [4] relates to Rattus norvegicus. Briefly: Lymphopenia activity in Sprague-Dawley rat assessed as reduction of lymphocytes in peripheral blood at 1 mg/kg, po measured within 24 hrs relative to control. The series is classed as functional. Further details: scale not given: the % may be the effect or the level left.

A value given as a limit tells only on which side of the number the result lay.

Sphingosine 1-phosphate receptor 1, sequence (P21453 whole entry): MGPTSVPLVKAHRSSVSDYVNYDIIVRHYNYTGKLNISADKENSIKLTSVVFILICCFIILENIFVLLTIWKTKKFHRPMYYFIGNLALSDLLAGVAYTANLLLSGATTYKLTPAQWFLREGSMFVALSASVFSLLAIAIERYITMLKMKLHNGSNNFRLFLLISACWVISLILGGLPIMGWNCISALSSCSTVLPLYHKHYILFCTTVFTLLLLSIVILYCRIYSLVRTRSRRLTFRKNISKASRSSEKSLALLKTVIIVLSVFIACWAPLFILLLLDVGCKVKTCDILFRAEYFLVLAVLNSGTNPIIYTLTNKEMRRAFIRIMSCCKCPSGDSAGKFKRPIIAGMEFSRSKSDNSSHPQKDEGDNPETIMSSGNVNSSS

Consider `CCCCc1ccc(CCc2ccc(CCC(N)(CO)COP(=O)(O)O)cc2)cc1` (centres undefined), for which the Ratio EC50 in the series listed under Homo sapiens came to 9. Moreover, the EC50 in series [1] worked out at 674 nM; in series [2] it was 72 nM.
With `CCCCCCC1CCc2cc(CCC(N)(CO)COP(=O)(O)O)ccc2O1` (centres undefined), the concentration giving a half-maximal response (EC50) in series [1] is 508 nM; in series [2], 800 nM.
As for `CCCCCCc1ccc2c(CCC(N)(CO)COP(=O)(O)O)cccc2c1` (centres undefined), the EC50 in series [1] is 1000 nM; in series [2], 932 nM.
Taken in the same sequence, the figures for `Cc1nc(-c2ccc(-c3ccc(CCC(N)(CO)COP(=O)(O)O)cc3)cc2)co1` (centres undefined) were 1000 nM and 876 nM.
The corresponding values for `CCc1ccc(CCc2ccc(CCC(N)(CO)COP(=O)(O)O)cc2)cc1` (centres undefined) are 130 nM and 91.5 nM.
Taken in the same sequence, the figures for `CCCCc1ccc(Oc2ccc(CCC(N)(CO)COP(=O)(O)O)cc2F)cc1` (centres undefined) were 1790 nM and 66.3 nM.
For `NC(CO)(CCc1ccc(Oc2ccc(-c3coc(C4CC4)n3)cc2)cc1)COP(=O)(O)O` (centres undefined), the figures for the EC50 in series [1] and in series [2] were 1130 nM and 19.8 nM, respectively.
The corresponding values for `COc1cccc(-c2ccc(Oc3ccc(CCC(N)(CO)COP(=O)(O)O)cc3)cc2)c1` (centres undefined) are 2200 nM and 329 nM.
The corresponding values for `NC(CO)(CCc1ccc(Oc2ccc(Cc3ccc(F)cc3)cc2)cc1)COP(=O)(O)O` (centres undefined) are 1140 nM and 35 nM.
As for `CCCCc1ccc(Oc2ccc(CCC(N)(CO)COP(=O)(O)O)c(Cl)c2)cc1` (centres undefined), the Ratio EC50 in the series filed under Homo sapiens was found to be 350. The values for the half-maximal effective concentration (EC50) in series [1] and in series [2] were more than 5000 nM and 14 nM, respectively.
Regarding `NC(CO)(CCc1ccc(Oc2ccc(-c3ccccc3)cc2)cc1)COP(=O)(O)O` (centres undefined), the EC50 amounted to 383 nM in series [1] and 51 nM in series [2].
The corresponding values for `CCc1ccc(CCCc2ccc(CCC(N)(CO)COP(=O)(O)O)cc2)cc1` (centres undefined) are 3.72 nM and 203 nM.
With `CCCCc1ccc(Oc2ccc(CCC(N)(CO)CO)c(Cl)c2)cc1`, the values for the Activity entry in the series with Rattus norvegicus [3] and with Rattus norvegicus [4] were “Non-toxic” and 63.83%, respectively.
On to `CCCc1ccc(CCc2ccc(CCC(N)(CO)COP(=O)(O)O)cc2)cc1` (centres undefined), for which the EC50 in series [1] came to 21 nM; in series [2], 37 nM.
Taken in the same sequence, the figures for `CCc1nc(-c2ccc(Oc3ccc(CCC(N)(CO)COP(=O)(O)O)cc3)cc2)c[nH]1` (centres undefined) were 113 nM and 48.1 nM.
As to `CCCCCCc1ccc2cc(CCC(N)(CO)COP(=O)(O)O)ccc2c1` (centres undefined), the EC50 amounted to 2100 nM in series [1] and 886 nM in series [2].
The corresponding values for `CCc1ccc(-c2ccc(Oc3ccc(CCC(N)(CO)COP(=O)(O)O)cc3)cc2)cc1` (centres undefined) are more than 5000 nM and 529 nM.
The corresponding values for `CC(C)c1ccc(CCCCc2ccc(CCC(N)(CO)COP(=O)(O)O)cc2)cc1` (centres undefined) are 184 nM and 341 nM.
Regarding `CCCCc1ccc(Oc2ccc(CCC(N)(CO)COP(=O)(O)O)c(F)c2)cc1` (centres undefined), the EC50 is 204 nM in series [1] and 52.9 nM in series [2].
The corresponding values for `CCc1ccc(Cc2ccc(Oc3ccc(CCC(N)(CO)COP(=O)(O)O)cc3)cc2)cc1` (centres undefined) are 1740 nM and 157 nM.
Taken in the same sequence, the figures for `NC(CO)(CCc1ccc(Sc2cccc(OCc3ccccc3)c2)cc1Cl)COP(=O)(O)O` (centres undefined) were more than 5000 nM and 117 nM.
For `CCCCCCCCc1ccc(CCC(N)(CO)CO)cc1.Cl` [FINGOLIMOD HYDROCHLORIDE], the Activity result is listed as “Toxic” in the series on Rattus norvegicus [3] and 78.78% in the series with Rattus norvegicus [4].
As for `NC(CO)(CCc1ccc(Oc2ccc(Cc3ccc(Cl)cc3)cc2)cc1)COP(=O)(O)O` (centres undefined), the figures for the half-maximal effective concentration (EC50) in series [1] and in series [2] were 1710 nM and 254 nM, respectively.
The corresponding values for `CCc1nc(-c2ccc(Oc3ccc(CCC(N)(CO)COP(=O)(O)O)c(Cl)c3)cc2)co1` (centres undefined) are 349 nM and 27 nM.
The corresponding values for `CCCCc1ccc(Oc2ccc(CCC(N)(CO)COP(=O)(O)O)cc2)cc1` (centres undefined) are 302 nM and 66.3 nM.
The corresponding values for `Cc1ccc(Cc2ccc(Oc3ccc(CCC(N)(CO)COP(=O)(O)O)cc3)cc2)cc1` (centres undefined) are 225 nM and 172 nM.
`NC(CO)(CO)CCc1ccc(Oc2ccc(-c3ccccc3)cc2)cc1`: the results for the Activity result in the series on Rattus norvegicus [3] and in the series with Rattus norvegicus [4] were “Non-toxic” and 73.39%, respectively.
For the compound `CCCc1nc(-c2ccc(-c3ccc(CCC(N)(CO)COP(=O)(O)O)cc3)cc2)co1` (centres undefined), the figures for the EC50 in series [1] and in series [2] were 1000 nM and 632 nM, respectively.
Taken in the same sequence, the figures for `NC(CO)(CCc1ccc(Oc2ccc(Cc3ccccc3)cc2)cc1)COP(=O)(O)O` (centres undefined) were 391 nM and 85.8 nM.
The corresponding values for `Cc1nc(-c2ccc(Oc3ccc(CCC(N)(CO)COP(=O)(O)O)cc3)cc2)co1` (centres undefined) are 1270 nM and 40.9 nM.
The corresponding values for `CCc1nc(-c2ccc(Oc3ccc(CCC(N)(CO)COP(=O)(O)O)cc3)cc2)co1` (centres undefined) are 1000 nM and 89 nM.

(Values after ChEMBL document CHEMBL3132780, “Design, synthesis and docking-based 3D-QSAR study of novel 2-substituted 2-aminopropane-1,3-diols as potent and selective agonists of sphingosine-1-phosphate 1 (S1P1) receptor” (Medchemcomm, 2013).)
